Like-named read-outs stand apart in the source and are kept apart here. Starred links: 1 amine or outer side, 2 acyl side, 3 side chain; linkers in the order of their positions; H or OH if unused. Positions of bridges follow the written chain, without caps; N, C: chain ends. Non-standard residues stand in square brackets, D forms with d. Residues, ends and D or L forms follow the SMILES beside them. Chains are numbered I, II in the order given. Actinocin(9to1) = Cc1c2oc3c(C)ccc(C(=O)[*:1])c3nc-2c(C(=O)[*:2])c(N)c1=O; NMeV = CN[C@H](C(=O)O)C(C)C; Sar = CNCC(=O)O
Key:
CTLL-2 cells [1] = settings: after metabolic activation
CTLL-2-bcl2 cells [2] = settings: after metabolic activation
CTLL-2-bcl2 cells [3] = type: cell-based, mouse; settings: after metabolic activation
CTLL-2 cells [4] = type: cell-based, mouse; settings: after metabolic activation
CTLL-2-bcl2 cells [5] = assay: Measurement of apoptosis (Annexin V-FITC, YOPRO-1) in CTLL-2-bcl2 cells; type: cell-based, mouse; settings: for induction of apoptosis (result in words): in parallel to micronucleus test
CTLL-2-bcl2 cells [6] = assay: Micronucleus test without metabolic activation in CTLL-2-bcl2 cells; settings: harvested at 15th hour
CTLL-2 cells [7] = assay: Measurement of apoptosis (Annexin V-FITC, YOPRO-1) in CTLL-2 cells; type: cell-based, mouse
CTLL-2 cells [8] = assay: Micronucleus test without metabolic activation in CTLL-2 cells; settings: for formation of micronuclei / micronucleated cell frequency (result in words): harvested at 15th hour, without metabolic activation
human lymphocytes [9] = settings: 44 hours
human lymphocytes [10] = settings: human lymphocytes treated 44 hours; from 250 μM of dexamethasone; control 2%
CTLL-2 cells [11] = settings: mouse, 15 h
CTLL-2 cells [12] = assay: Metaphase analysis test in CTLL-2 cells; type: cell-based, mouse; settings: for aberrant cells: CTLL-2
CTLL-2-bcl2 cells [13] = settings: mouse, 15 h
[14] = CTLL-2 cells, in parallel to micronucleus test

## Cc1c2ccccc2c(C)c2c1ccc1ccccc12 [7,12-dimethylbenz[a]anthracene]
CTLL-2 cells [1]
  formation of micronuclei (result in words): induce the formation of micronuclei
CTLL-2-bcl2 cells [2]
  formation of micronuclei (result in words): induce the formation of micronuclei
CTLL-2-bcl2 cells [3]
  apoptosis (result in words): apoptosis only on the CTLL-2 cells
CTLL-2 cells [4]
  apoptosis (result in words): apoptosis only on the CTLL-2 cells

## Cc1c2oc3c(C)ccc(C(=O)N[C@@H]4C(=O)N[C@H](C(C)C)C(=O)N5CCC[C@H]5C(=O)N(C)CC(=O)N(C)[C@@H](C(C)C)C(=O)O[C@@H]4C)c3nc-2c(C(=O)N[C@@H]2C(=O)N[C@H](C(C)C)C(=O)N3CCC[C@H]3C(=O)N(C)CC(=O)N(C)[C@@H](C(C)C)C(=O)O[C@@H]2C)c(N)c1=O [Actinomycin D] (I: T[dV]P[Sar][NMeV] / II: T[dV]P[Sar][NMeV]; ester I:1-I:C, II:1-II:C; linker I:N-II:N via Actinocin(9to1))
CTLL-2-bcl2 cells [5]
  induction of apoptosis (result in words): neither apoptosis nor genotoxicity is observed
CTLL-2-bcl2 cells [6]
  formation of micronuclei / micronucleated cell frequency (result in words): neither apoptosis nor genotoxicity is observed
CTLL-2 cells [7]; [14]
  induction of apoptosis (result in words): induction of apoptosis
CTLL-2 cells [8]; CTLL-2 cells
  formation of micronuclei / micronucleated cell frequency (result in words): positive response in terms of clastogenesis

## COS(C)(=O)=O [MMS, Methyl methanesulfonate]
CTLL-2-bcl2 cells [5]
  induction of apoptosis (result in words): apoptotic phenomenon is not triggered
CTLL-2 cells [7]; [14]
  induction of apoptosis (result in words): apoptotic phenomenon is not triggered

## CN(N=O)C(N)=O [MNU, N-methyl-N-nitrosourea]
CTLL-2-bcl2 cells [5]
  induction of apoptosis (result in words): without inducing apoptosis
CTLL-2-bcl2 cells [6]
  formation of micronuclei / micronucleated cell frequency (result in words): positive response
CTLL-2 cells [7]; [14]
  induction of apoptosis (result in words): without inducing apoptosis
CTLL-2 cells [8]; CTLL-2 cells
  formation of micronuclei / micronucleated cell frequency (result in words): positive response

## COC(=O)Nc1nc2ccc(C(=O)c3cccs3)cc2[nH]1 [Nocodazole, nocodazole]
CTLL-2 cells [7]; [14]
  induction of apoptosis (result in words): induce apoptosis

## C[C@H]1CCC/C=C/[C@@H]2C[C@H](O)C[C@H]2[C@H](O)/C=C/C(=O)O1 [brefeldin A]
CTLL-2 cells [7]; [14]
  induction of apoptosis (result in words): induce apoptosis

## CC[C@@]1(O)C(=O)OCc2c1cc1n(c2=O)Cc2cc3ccccc3nc2-1 [camptothecin]
CTLL-2 cells [7]; [14]
  induction of apoptosis (result in words): induce apoptosis

## COc1cc(/C=C/C(=O)CC(=O)/C=C/c2ccc(O)c(OC)c2)ccc1O [curcumin]
CTLL-2 cells [7]; [14]
  induction of apoptosis (result in words): induce apoptosis

## O=P1(N(CCCl)CCCl)NCCCO1 (stereo not drawn) [cyclophosphamide]
CTLL-2 cells [1]
  formation of micronuclei (result in words): induce the formation of micronuclei
CTLL-2-bcl2 cells [2]
  formation of micronuclei (result in words): induce the formation of micronuclei
CTLL-2-bcl2 cells [3]
  apoptosis (result in words): apoptosis only on the CTLL-2 cells
CTLL-2 cells [4]
  apoptosis (result in words): apoptosis only on the CTLL-2 cells

## C[C@@H]1C[C@H]2[C@@H]3CCC4=CC(=O)C=C[C@]4(C)[C@@]3(F)[C@@H](O)C[C@]2(C)[C@@]1(O)C(=O)CO [dexamethasone]
CTLL-2 cells [7]; CTLL-2, in parallel to metaphase analysis
  concentration from which apoptosis increased: 37.5 nM
CTLL-2 cells [7]; CTLL-2, in parallel to metaphase analysis, 150 nM dexamethasone
  apoptosis: 30%
CTLL-2 cells [7]; CTLL-2, in parallel to metaphase analysis, from 37.5 nM of dexamethasone, control approximately 7%
  apoptosis: 18%
CTLL-2 cells [7]; CTLL-2, Annexin-V-FITC and YOPRO-1, maximum from 50 nM of dexamethasone, negative control 6%
  percentage of apoptotic cells: 30.5%
Human lymphocytes [9]
  concentration from which apoptosis increased: 250 µM
Human lymphocytes [9]; from 250 μM of dexamethasone, control approximately 16%
  apoptosis: 40%
Human lymphocytes [10]
  aberrant cells: 11%
CTLL-2 cells [11]; 50 nM
  micronucleated cells: 60 ‰
CTLL-2 cells [12]; from 37.5 nM of dexamethasone, control 2%
  aberrant cells: 8%
CTLL-2 cells [12]; CTLL-2 cells
  chromosomal aberrations (result in words): chromosome and chromatid breaking but no exchange
  lowest concentration with number of aberrant cells statistically different (p=0.05) from control: 37.5 nM

## CN1C(=O)CN=C(c2ccccc2)c2cc(Cl)ccc21 [diazepam]
CTLL-2-bcl2 cells [5]
  induction of apoptosis (result in words): without inducing apoptosis
CTLL-2-bcl2 cells [6]
  formation of micronuclei / micronucleated cell frequency (result in words): positive response
CTLL-2 cells [7]
  induction of apoptosis (result in words): without inducing apoptosis
CTLL-2 cells [8]; CTLL-2 cells
  formation of micronuclei / micronucleated cell frequency (result in words): positive response

## CCOS(C)(=O)=O [ethyl methanesulfonate]
CTLL-2-bcl2 cells [5]
  induction of apoptosis (result in words): without inducing apoptosis
CTLL-2 cells [7]; [14]
  induction of apoptosis (result in words): without inducing apoptosis

## O=c1c(-c2ccc(O)cc2)coc2cc(O)cc(O)c12 [genistein]
CTLL-2 cells [7]; [14]
  induction of apoptosis (result in words): induce apoptosis

## CN1C(=O)[C@]23CC4=CC=C[C@H](O)[C@H]4N2C(=O)[C@@]1(CO)SS3 [gliotoxin]
CTLL-2-bcl2 cells [5]
  induction of apoptosis (result in words): apoptosis was maintained at a lower rate
CTLL-2-bcl2 cells [6]
  formation of micronuclei / micronucleated cell frequency (result in words): as was the number of micronucleated cells
CTLL-2 cells [7]
  level of apoptosis: 45%
CTLL-2 cells [7]; CTLL-2, in parallel to metaphase analysis, […], controls 5%
  apoptosis: 17%
CTLL-2 cells [7]; CTLL-2 cells
  lowest concentration with apoptosis different from control (p=0.01): 100 nM
CTLL-2 cells [12]; from 50 μM of gliotoxin, control 1%
  aberrant cells: 10%
CTLL-2 cells [12]; CTLL-2 cells
  chromosomal aberrations (result in words): positive response
  lowest concentration with aberrations / positive response in terms of clastogenesis: 50 µM
CTLL-2 cells [8]; CTLL-2 cells
  lowest concentration with increase in micronuclei versus control: 100 nM
CTLL-2 cells [8]; nontransfected CTLL-2, gliotoxin at the highest dose (200 nM), increased from 5‰
  number of aberrant (micronucleated) cells: 20 ‰

## CSCCC=O [methional]
CTLL-2-bcl2 cells [5]
  induction of apoptosis (result in words): neither apoptosis nor micronuclei appeared
CTLL-2 cells [7]; CTLL-2, methional at the highest dose (150 μM), control 6.5%
  level of apoptotic cells: 24%
CTLL-2 cells [7]; CTLL-2 cells, first dose
  lowest concentration with statistically significant (p=0.01) induction of apoptosis: 60.8 µM
CTLL-2 cells [11]
  lowest concentration with statistically significant (p=0.01) micronucleated cells: 60.8 µM
CTLL-2 cells [11]; 150 μM
  number of micronucleated cells: 98 ‰
CTLL-2 cells [12]; CTLL-2 cells
  chromosomal aberrations (result in words): structural aberrations, such as breaks or gaps
  lowest concentration with aberrations / positive response in terms of clastogenesis: 18.75 µM
CTLL-2 cells [12]; nontransfected CTLL-2, methional 18.75 μM, control 3%
  cells bearing chromosomal aberrations: 13%

## CCN(CC)CCCC(C)Nc1c2ccc(Cl)cc2nc2ccc(OC)cc12 (stereo not drawn) [quinacrin]
CTLL-2 cells [7]; [14]
  induction of apoptosis (result in words): induce apoptosis

## CN[C@@H]1C[C@H]2O[C@@](C)([C@@H]1OC)n1c3ccccc3c3c4c(c5c6ccccc6n2c5c31)C(=O)NC4 [staurosporine]
CTLL-2-bcl2 cells [5]
  induction of apoptosis (result in words): neither apoptosis nor genotoxicity is observed
CTLL-2-bcl2 cells [6]
  formation of micronuclei / micronucleated cell frequency (result in words): neither apoptosis nor genotoxicity is observed
CTLL-2 cells [7]; [14]
  induction of apoptosis (result in words): induction of apoptosis
CTLL-2 cells [8]; CTLL-2 cells
  formation of micronuclei / micronucleated cell frequency (result in words): positive response in terms of clastogenesis

## CC(=O)O[C@H]1C(=O)[C@@]2(C)[C@H]([C@H](OC(=O)c3ccccc3)[C@]3(O)C[C@H](OC(=O)[C@H](O)[C@@H](NC(=O)c4ccccc4)c4ccccc4)C(C)=C1C3(C)C)[C@]1(OC(C)=O)CO[C@@H]1C[C@@H]2O [taxol]
CTLL-2-bcl2 cells [5]; taxol 50 nM
  apoptosis at the dose that increases micronuclei: do not cause apoptosis
CTLL-2 cells [7]; [14]
  induction of apoptosis (result in words): induce apoptosis
CTLL-2 cells [7]; CTLL-2 cells, taxol 25 nM
  apoptosis at the dose that increases micronuclei: do not cause apoptosis
CTLL-2 cells [11]
  lowest concentration with increase in micronuclei versus control: 25 nM
CTLL-2-bcl2 cells [13]
  concentration at which the difference in number of micronuclei between CTLL-2 and CTLL-2-bcl2 lines appears: 25 nM
  lowest concentration with increase in number of micronuclei: 50 nM

## mitomycin C
CTLL-2-bcl2 cells [6]
  formation of micronuclei / micronucleated cell frequency (result in words): micronucleated cell frequencies increase significantly with the dose
CTLL-2 cells [8]; CTLL-2 cells
  formation of micronuclei / micronucleated cell frequency (result in words): micronucleated cell frequencies increase significantly with the dose

## thapsigargine
CTLL-2 cells [7]; [14]
  induction of apoptosis (result in words): induce apoptosis

Reference: patent publication US6713261B1, “Method for assessing genotoxicity of a compound” (Institut National de la Sante et de la Recherche Medicale, priority 1999, dated 2004)
